From patent US9375457B2, “Composition comprising Rhizoma coptidis, Cortex phellodendri and Fructus gardeniae and for treating neurodegenerative diseases” (Hong Kong Baptist University, priority 2013, dated 2016)

System: Aβ1-40 and Aβ1-42 in brain of TgCRND8 mice
Test: Aβ ELISA of serially extracted brain fractions of TgCRND8 mice
Assay type: in vivo
Settings: oral, 25 mg/kg per day
Excerpt: All animal handling experiments were approved by the Hong Kong Baptist University Committee on the Use of Human and Animal Subjects in Teaching and Research (HASC, approval #: 12-13/0030). TgCRND8 mice expressing human APP with Swedish (K670N/M671L) and Indiana (V717F) mutations were used to evaluate the effect of baicalein on Aβ. Heterozygous TgCRND8 mice on a C57BL/6J background were used to breed a colony of experimental animals. The TgCRND8 mouse is an early onset model of AD with visible Aβ deposits in the brains of the animals starting from 3 months of age as described in Chishti M A, Yang D S, Janus C, Phinney A L, Home P, Pearson J, Strome R, Zuker N, Loukides J, French J, Turner S, Lozza G, Grilli M, Kunicki S, Morissette C, Paquette J, Gervais F, Bergeron C, Fraser P E, Carlson G A, George-Hyslop P S, Westaway D. (2001) Early-onset amyloid deposition and cognitive deficits in transgenic mice expressing a double mutant form of amyloid precursor protein 695. J Biol Chem 276: 21562-21570. The animals are housed in a controlled environment under a 12/12 hours light/dark cycle. They are allowed free access to food and water. The oral administration of baicalein (25 mg/kg/d) is commenced at 2 months of age and ended at 5 months before being killed. A single dose (25 mg/kg/d) of baicalein is tested in animal study as no difference in baicalein levels in the brain between doses of 25 and 50 mg/kg/d is found in our pilot study. Control mice orally gavaged with tap water only for the same administration period. At the conclusion of the treatment period, mice were deeply anesthetized by chloral hydrate and perfused with phosphate buffered saline (PBS). The brains were then dissected and processed for Aβ immunostaining
To detect differences in the level of APP metabolic products among treatment groups, the levels of Aβ, F1-APP, pAPPThr668, CTFs, sAPPα and sAPPβ-sw are measured after a 3-step sequential extraction using Tris buffered saline (TBS) (pH 7.4), 1% Triton X-100/TBS (TBSX) and formic acid (FA) methods as described in Youmans K L, Leung S, Zhang J, Maus E, Baysac K, Bu G, Vassar R, Yu C, LaDu M J. (2011) Amyloid-β42 alters apolipoprotein E solubility in brains of mice with five familial AD mutations. J Neurosci Methods 196: 51-59. All extraction buffers also contained protease and phosphatase inhibitor cocktail (Roche Diagnostics, Basel, Switzerland). Snap frozen tissue is homogenized in 15 volumes (w/v) of TBS homogenization buffer and centrifuged at 100,000×g for 1 h at 4° C. using a Type 70 Ti rotor in an Optima™ L-80XP Ultracentrifuge (Beckman Coulter, Fla., USA). The TBS-soluble fraction is aliquoted, frozen in liquid nitrogen and stored at −80° C. The pellets are resuspended in 15 volumes of TBSX and kept on ice for 30 minutes, followed by a second centrifugation at 100,000×g for 1 hour at 4° C. The TBSX soluble fraction is aliquoted, frozen and stored as for the TBS fraction. The TBSX-insoluble pellet is resuspended in 2 mL of 70% FA and centrifuged at 100,000×g at 4° C. for 1 hour. The FA extracts are neutralized by the addition of 20 volumes of 1 M Tris pH 11, aliquoted and stored at −80° C. Total protein content in TBS- and TBSX-extracts is determined via BCA assay. […]
The levels of intracellular Aβ1-40 and Aβ1-42 are quantified by using a sandwich ELISA as previously described by Durairajan et al., 2011 with minor modification. Equal amounts of cell or brain lysates are used for Aβ quantification by sandwich ELISA. […]

For `O=c1cc(-c2ccccc2)oc2cc(O)c(O)c(O)c12` [baicalein], which “effect on TBS soluble Aβ levels in brain” value (TBS fraction) is on record?
The value was “did not significantly affect”.

And the “increase of Aβ1-40 in TBSX-soluble brain fraction” value (TBSX fraction)?
The value was 35%.

What about the “increase of Aβ1-42 in TBSX-soluble brain fraction” value (TBSX fraction) of the same compound?
Its value is 65%.

And the “increase of Aβ1-40 in FA brain fraction” value (formic acid fraction)?
Its value is 80%.

And the “increase of Aβ1-42 in FA brain fraction” value (formic acid fraction)?
Its value is 32%.
